Test results as given in PubChem BioAssay AID256 (DTP/NCI, 2004).
Values joined by “and” are separate entries in the source; they are usually repeats but may differ in a detail not shown here. Identical values can stand only once. Toxic doses and inconclusive results are not listed. The calls were made as follows: active = survival T/C of 150% or more; inactive = T/C below 125% in these data.

Test system: CD2F1 mice, L1210 leukemia ip, survival T/C
Experiment: NCI In Vivo Anticancer Drug Screen. Data for tumor model L1210 Leukemia (intraperitoneal) in CD2F1 (CDF1) mice
Conditions: endpoint: mean survival time, higher = longer survival
Outline: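 Read-out first: treated-group measurement over vehicle-control measurement, expressed as a ratio. Animals bore a transplanted tumor line and were dosed with compound or vehicle.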

[1] = dose: 100.0 mg/kg/injection, schedule: Q01DX009 (ip), vehicle: saline with Tween-80
[2] = dose: 100.0 mg/kg/injection, schedule: Q04DX003 (ip), vehicle: saline with Tween-80
[3] = dose: 200.0 mg/kg/injection, schedule: Q01DX009 (ip), vehicle: saline with Tween-80
[4] = dose: 200.0 mg/kg/injection, schedule: Q04DX003 (ip), vehicle: saline with Tween-80
[5] = dose: 400.0 mg/kg/injection, schedule: Q01DX009 (ip), vehicle: saline with Tween-80
[6] = dose: 400.0 mg/kg/injection, schedule: Q04DX003 (ip), vehicle: saline with Tween-80
[7] = dose: 12.5 mg/kg/injection, schedule: Q01DX009 (ip), vehicle: saline with Tween-80
[8] = dose: 50.0 mg/kg/injection, schedule: Q01DX009 (ip), vehicle: saline with Tween-80
[9] = dose: 25.0 mg/kg/injection, schedule: Q04DX003 (ip), vehicle: saline with Tween-80
[10] = dose: 12.5 mg/kg/injection, schedule: Q04DX002 (ip), vehicle: saline with Tween-80
[11] = dose: 25.0 mg/kg/injection, schedule: Q04DX002 (ip), vehicle: saline with Tween-80
[12] = dose: 50.0 mg/kg/injection, schedule: Q04DX002 (ip), vehicle: saline with Tween-80
[13] = dose: 12.5 mg/kg/injection, schedule: Q01DX009 (ip), vehicle: water

Measured: T/C

N=C(N)SCCSC(=N)N
inactive: dose: 25.0 mg/kg/injection, schedule: Q01DX009 (ip), vehicle: saline 92 % of control | dose: 50.0 mg/kg/injection, schedule: Q01DX009 (ip), vehicle: saline 94 % of control | dose: 100.0 mg/kg/injection, schedule: Q01DX009 (ip), vehicle: saline 94 % of control | dose: 100.0 mg/kg/injection, schedule: Q04DX003 (ip), vehicle: saline 100 % of control | dose: 200.0 mg/kg/injection, schedule: Q04DX003 (ip), vehicle: saline 105 % of control

CCOC(=O)c1c(C)oc2cc3c(C(=O)OCC)c(C)oc3cc12
inactive: dose: 100.0 mg/kg/injection, schedule: Q01DX001 (ip), vehicle: Klucel (hydroxypropylcellulose) (HPC) 90 % of control | dose: 200.0 mg/kg/injection, schedule: Q01DX001 (ip), vehicle: Klucel (hydroxypropylcellulose) (HPC) 95 % of control | dose: 400.0 mg/kg/injection, schedule: Q01DX001 (ip), vehicle: Klucel (hydroxypropylcellulose) (HPC) 93 % of control

Cc1nocc1CC1=C2CCCC(=O)C2(C)CCC1=O (centres undefined)
inactive: dose: 100.0 mg/kg/injection, schedule: Q01DX001 (ip), vehicle: alcohol 94 % of control | dose: 200.0 mg/kg/injection, schedule: Q01DX001 (ip), vehicle: alcohol 92 % of control | dose: 400.0 mg/kg/injection, schedule: Q01DX001 (ip), vehicle: alcohol 95 % of control

O=C(O)/C=C/C(=O)NCCc1c[nH]c2ccccc12
inactive: [1] 98 % of control | [2] 93 % of control | [3] 95 % of control | [4] 95 % of control | [5] 95 % of control | [6] 95 % of control

O=c1ccn(Cc2ccc([N+](=O)[O-])cc2)c(=O)[nH]1
inactive: dose: 100.0 mg/kg/injection, schedule: Q01DX001 (ip), vehicle: saline with Tween-80 94 % of control | dose: 200.0 mg/kg/injection, schedule: Q01DX001 (ip), vehicle: saline with Tween-80 90 % of control | dose: 400.0 mg/kg/injection, schedule: Q01DX001 (ip), vehicle: saline with Tween-80 98 % of control

O=C1c2ccccc2C(=O)N1CNc1ccc(Cl)cn1
inactive: [1] 86 % of control | [2] 97 % of control and 100 % of control | [4] 90 % of control and 98 % of control | [5] 86 % of control | [6] 91 % of control and 102 % of control

CC(=O)Oc1cccc2c1C(=O)C1(O)C(C=O)=CC3OC(C)(C)OC2(C)C31 (centres undefined)
inactive: dose: 75.0 mg/kg/injection, schedule: Q01DX001 (ip), vehicle: other 102 % of control | dose: 150.0 mg/kg/injection, schedule: Q01DX001 (ip), vehicle: other 108 % of control | dose: 300.0 mg/kg/injection, schedule: Q01DX001 (ip), vehicle: other 103 % of control

C(=C(/C=C/c1ccccc1)/C=C/c1ccccc1)C(=C/c1ccccc1)/c1ccccc1
inactive: dose: 12.5 mg/kg/injection, schedule: Q01DX001 (ip), vehicle: saline with Tween-80 100 % of control | [7] 91 % of control | dose: 25.0 mg/kg/injection, schedule: Q01DX001 (ip), vehicle: saline with Tween-80 90 % of control | dose: 50.0 mg/kg/injection, schedule: Q01DX001 (ip), vehicle: saline with Tween-80 92 % of control | [8] 86 % of control

BrC1CCC([Si](c2ccccc2)(c2ccccc2)c2ccccc2)CC1 (centres undefined)
inactive: [2] 87 % of control | [4] 93 % of control | [6] 93 % of control

COC12[C@@H](COC(N)=O)C3=C(C(=O)C(C)=C(NCCSSCCNC4=C(C)C(=O)C5=C(C4=O)C(COC(N)=O)[C@]4(OC)C6[C@@H](CN54)N6C)C3=O)N1C[C@@H]1[C@H]2N1C (some centres undefined)
inactive: dose: 6.0 mg/kg/injection, schedule: Q01DX001 (ip), vehicle: distilled water + Tween-80 114 % of control

O=[As](O)(O)c1ccccc1[As](=O)(O)O
inactive: dose: 6.25 mg/kg/injection, schedule: Q04DX003 (ip), vehicle: saline with Tween-80 101 % of control | dose: 12.5 mg/kg/injection, schedule: Q04DX003 (ip), vehicle: saline with Tween-80 101 % of control | [9] 100 % of control

CC(C)C(NC(=O)OC(C)(C)C)C(=O)ON1C(=O)CCC1=O (centres undefined)
inactive: [2] 104 % of control | [4] 100 % of control

O=C1OC(=O)C2C1CC1C(=O)OC(=O)C12 (centres undefined)
inactive: dose: 50.0 mg/kg/injection, schedule: Q04DX003 (ip), vehicle: Klucel (hydroxypropylcellulose) (HPC) 97 % of control | dose: 100.0 mg/kg/injection, schedule: Q04DX003 (ip), vehicle: Klucel (hydroxypropylcellulose) (HPC) 100 % of control | dose: 200.0 mg/kg/injection, schedule: Q04DX003 (ip), vehicle: Klucel (hydroxypropylcellulose) (HPC) 96 % of control

CC12C=CC(=O)C=C1CCCC2 (centres undefined)
inactive: [10] 96 % of control | [11] 91 % of control | [12] 96 % of control

O=[N+]([O-])c1c[nH]n2c([N+](=O)[O-])cnc12
inactive: [13] 96 % of control | dose: 25.0 mg/kg/injection, schedule: Q01DX009 (ip), vehicle: water 97 % of control

CC1CCC(NC2=NCCO2)C(C)C1 (centres undefined)
inactive: [7] 105 % of control | dose: 25.0 mg/kg/injection, schedule: Q01DX009 (ip), vehicle: saline with Tween-80 112 % of control | [9] 101 % of control | [8] 101 % of control | dose: 50.0 mg/kg/injection, schedule: Q04DX003 (ip), vehicle: saline with Tween-80 101 % of control

CCN(CC)C(C(=O)Nc1ccccc1)C(=O)Nc1ccccc1
inactive: [1] 98 % of control | [3] 93 % of control | [5] 98 % of control

CCCCCCCCCCC(=O)CC
inactive: [2] 100 % of control | [4] 102 % of control | [6] 98 % of control

CCn1ccc(=O)nc1
inactive: [10] 95 % of control | [11] 95 % of control | [12] 106 % of control

CCN(CC)c1cccc(OC(=O)NC)c1
inactive: dose: 5.0 mg/kg/injection, schedule: Q01DX001 (ip), vehicle: saline 102 % of control | dose: 10.0 mg/kg/injection, schedule: Q01DX001 (ip), vehicle: saline 102 % of control | dose: 20.0 mg/kg/injection, schedule: Q01DX001 (ip), vehicle: saline 102 % of control

Cc1c2ccccc2cc2cc[n+]3ccccc3c12
inactive: dose: 10.0 mg/kg/injection, schedule: Q01DX009 (ip), vehicle: Klucel (hydroxypropylcellulose) (HPC) 92 % of control | dose: 20.0 mg/kg/injection, schedule: Q01DX009 (ip), vehicle: Klucel (hydroxypropylcellulose) (HPC) 103 % of control | dose: 40.0 mg/kg/injection, schedule: Q01DX009 (ip), vehicle: Klucel (hydroxypropylcellulose) (HPC) 92 % of control

Cc1ccc(S(=O)(=O)F)c(Cl)c1
inactive: dose: 50.0 mg/kg/injection, schedule: Q01DX009 (ip), vehicle: saline sonified 97 % of control | dose: 100.0 mg/kg/injection, schedule: Q01DX009 (ip), vehicle: saline sonified 97 % of control | dose: 200.0 mg/kg/injection, schedule: Q01DX009 (ip), vehicle: saline sonified 95 % of control

C1CC2CCCN2C1
inactive: dose: 12.5 mg/kg/injection, schedule: Q04DX003 (ip), vehicle: acetone 96 % of control | dose: 25.0 mg/kg/injection, schedule: Q04DX003 (ip), vehicle: acetone 102 % of control | dose: 50.0 mg/kg/injection, schedule: Q04DX003 (ip), vehicle: acetone 97 % of control

CCCC1CC[N-]CC1.CCCC1CC[N-]CC1.CCCC1CC[N-]CC1.CCCC1CC[N-]CC1.CS(C)=O.CS(C)=O.[Cl-].[Cl-].[Cl-].[Cl-].[Cl][Rh][Cl].[Rh+3]
inactive: dose: 6.25 mg/kg/injection, schedule: Q01DX009 (ip), vehicle: water 98 % of control | [13] 112 % of control | dose: 25.0 mg/kg/injection, schedule: Q04DX003 (ip), vehicle: water 120 % of control
